# Where two headings read alike, the source gives them in different places.
# Legend:
# [1] = tested on: Acinetobacter baumannii, quinolone-resistant strains (Quotient Bioresearch catalogue); test: MIC against pathogens resistant against quinolones (Table 5); format: cell-based
# [2] = tested on: Escherichia coli (6 strains); test: MIC range, broader panel of Quotient Bioresearch strains (Table 4); format: cell-based; conditions: for MIC50: read-out: MIC Range Median, Escherichia coli (6 strains)
# [3] = tested on: Klebsiella pneumonia (4 strains); test: as above; format: cell-based; conditions: Klebsiella pneumoniae; for MIC50: read-out: MIC Range Median, Klebsiella pneumonia (4 strains)
# [4] = tested on: Pseudomonas aeruginosa (12 strains); test: as above; format: cell-based; conditions: for MIC50: read-out: MIC Range Median, Pseudomonas aeruginosa (12 strains)
# [5] = tested on: Burkholderia cepacia (5 strains); test: as above; format: cell-based; conditions: for MIC50: read-out: MIC Range Median, Burkholderia cepacia (5 strains)
# [6] = tested on: Haemophilus influenza (5 strains); test: as above; format: cell-based, Haemophilus influenzae; conditions: for MIC50: 16 h, Median of the strain panel
# [7] = tested on: Acinetobacter baumannii (12 strains); test: as above; format: cell-based; conditions: for MIC50: read-out: MIC Range Median, Acinetobacter baumannii (12 strains)
# [8] = Metabolic stability in liver microsomes +/- S9 fraction (Table 8); format: in vitro ADME; conditions: 1 μM
# Description: Metabolic stability of a select number of examples was tested in liver microsomes+/−addition of S9 fraction as described by Kuhnz, W. and Gieschen, H. (1998), Drug Metab. Dispos., 1120-1127. Test concentration was 1 μM and HPLC/MS-MS was used for detection.
# [9] = tested on: Bacterial strains injected into thigh muscles; format: in vivo, mice; conditions: 30 mg/kg TDS p.o.
# physchem = format: physicochemical; conditions: thermodynamic from solid
# Description: The solutions were incubated at room temperature for 24 hours before quantification by HPLC detection. Aqueous solubility was evaluated in simulated gastric fluid (SGF), simulated intestinal fluid (SIF) and phosphate buffer saline (PBS) pH 7.4. Aqueous solubility is expressed in Table 11 as mean solubility in μM.
# [10] = tested on: Staphylococcus aureus (16 strains); test: MIC range, broader panel of Quotient Bioresearch strains (Table 3); conditions: for MIC50: read-out: MIC Range Median, Staphylococcus aureus (16 strains)
# [11] = tested on: Enterococcus faecalis (5 strains); test: as above; conditions: for MIC50: read-out: MIC Range Median, Enterococcus faecalis (5 strains)
# [12] = tested on: Enterococcus faecium (3 strains); test: as above; conditions: for MIC: read-out: MIC Range Low, Enterococcus faecium (3 strains); for MIC50: read-out: MIC Range Median, Enterococcus faecium (3 strains)
# [13] = tested on: Streptococcus pneumonia (5 strains); test: as above; conditions: Streptococcus pneumoniae; for MIC: read-out: MIC Range Low, Streptococcus pneumonia (5 strains); for MIC50: read-out: MIC Range Median, Streptococcus pneumonia (5 strains)
# [14] = tested on: Streptococcus pyogenes (4 strains); test: as above; conditions: for MIC50: read-out: MIC Range Median, Streptococcus pyogenes (4 strains)
# [15] = tested on: Group C Streptococcus (4 strains); test: as above; conditions: for MIC50: read-out: MIC Range Median, Group C Streptococcus (4 strains)
# bacterial gyrase = bacterial gyrase (Escherichia coli, UniProt P0AES4+P0AES6); test: Inhibition of topoisomerases activity in vitro, Topogen protocol TG1003 (Table 7); format: biochemical
# [16] = molecular target: bacterial topoisomerase IV (Escherichia coli, UniProt P0AFI2+P20083); test: Inhibition of topoisomerases activity in vitro, Topogen protocol TG1007 (Table 7); format: biochemical
# [17] = read-out: MIC Range High, Escherichia coli (6 strains)
# [18] = read-out: MIC Range Low, Escherichia coli (6 strains)
# [19] = read-out: MIC Range High, Klebsiella pneumonia (4 strains)
# [20] = read-out: MIC Range Low, Klebsiella pneumonia (4 strains)
# [21] = read-out: MIC Range High, Pseudomonas aeruginosa (12 strains)
# [22] = read-out: MIC Range Low, Pseudomonas aeruginosa (12 strains)
# [23] = read-out: MIC Range High, Burkholderia cepacia (5 strains)
# [24] = read-out: MIC Range Low, Burkholderia cepacia (5 strains)
# [25] = High of the strain panel, read-out: MIC Range High, Haemophilus influenza (5 strains)
# [26] = Low of the strain panel, read-out: MIC Range Low, Haemophilus influenza (5 strains)
# [27] = read-out: MIC Range High, Acinetobacter baumannii (12 strains)
# [28] = read-out: MIC Range Low, Acinetobacter baumannii (12 strains)
# [29] = read-out: MIC Range High, Staphylococcus aureus (16 strains)
# [30] = read-out: MIC Range Low, Staphylococcus aureus (16 strains)
# [31] = read-out: MIC Range Low, Enterococcus faecalis (5 strains)
# [32] = read-out: MIC Range High, Streptococcus pyogenes (4 strains)
# [33] = read-out: MIC Range Low, Streptococcus pyogenes (4 strains)
# [34] = read-out: MIC Range High, Group C Streptococcus (4 strains)
# [35] = read-out: MIC Range Low, Group C Streptococcus (4 strains)
# Chain of bacterial gyrase (P0AES4 whole entry, one chain of several): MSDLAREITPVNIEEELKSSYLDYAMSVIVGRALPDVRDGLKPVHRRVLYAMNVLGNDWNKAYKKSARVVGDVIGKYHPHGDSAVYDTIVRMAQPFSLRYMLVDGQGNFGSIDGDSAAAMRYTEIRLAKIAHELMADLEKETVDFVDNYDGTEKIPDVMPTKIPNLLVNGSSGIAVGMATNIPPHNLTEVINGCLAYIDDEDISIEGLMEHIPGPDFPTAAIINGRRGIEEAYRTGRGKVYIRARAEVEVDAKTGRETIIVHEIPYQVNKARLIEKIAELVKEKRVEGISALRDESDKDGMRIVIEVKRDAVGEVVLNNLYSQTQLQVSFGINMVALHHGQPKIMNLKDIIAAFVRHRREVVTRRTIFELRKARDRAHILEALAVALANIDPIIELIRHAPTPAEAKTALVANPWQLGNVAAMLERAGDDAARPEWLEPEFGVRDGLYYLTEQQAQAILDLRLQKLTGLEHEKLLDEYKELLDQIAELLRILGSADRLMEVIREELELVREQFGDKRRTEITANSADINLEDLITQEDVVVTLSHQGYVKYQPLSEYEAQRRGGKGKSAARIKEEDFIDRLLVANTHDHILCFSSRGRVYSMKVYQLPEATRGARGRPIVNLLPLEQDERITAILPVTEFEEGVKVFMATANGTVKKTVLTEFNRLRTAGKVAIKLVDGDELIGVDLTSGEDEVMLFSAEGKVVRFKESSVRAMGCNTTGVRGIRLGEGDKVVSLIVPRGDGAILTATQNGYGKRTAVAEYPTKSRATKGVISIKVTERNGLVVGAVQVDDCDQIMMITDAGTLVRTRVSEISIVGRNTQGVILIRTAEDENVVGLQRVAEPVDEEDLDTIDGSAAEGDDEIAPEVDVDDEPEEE
# Chain of bacterial topoisomerase IV (P20083 whole entry): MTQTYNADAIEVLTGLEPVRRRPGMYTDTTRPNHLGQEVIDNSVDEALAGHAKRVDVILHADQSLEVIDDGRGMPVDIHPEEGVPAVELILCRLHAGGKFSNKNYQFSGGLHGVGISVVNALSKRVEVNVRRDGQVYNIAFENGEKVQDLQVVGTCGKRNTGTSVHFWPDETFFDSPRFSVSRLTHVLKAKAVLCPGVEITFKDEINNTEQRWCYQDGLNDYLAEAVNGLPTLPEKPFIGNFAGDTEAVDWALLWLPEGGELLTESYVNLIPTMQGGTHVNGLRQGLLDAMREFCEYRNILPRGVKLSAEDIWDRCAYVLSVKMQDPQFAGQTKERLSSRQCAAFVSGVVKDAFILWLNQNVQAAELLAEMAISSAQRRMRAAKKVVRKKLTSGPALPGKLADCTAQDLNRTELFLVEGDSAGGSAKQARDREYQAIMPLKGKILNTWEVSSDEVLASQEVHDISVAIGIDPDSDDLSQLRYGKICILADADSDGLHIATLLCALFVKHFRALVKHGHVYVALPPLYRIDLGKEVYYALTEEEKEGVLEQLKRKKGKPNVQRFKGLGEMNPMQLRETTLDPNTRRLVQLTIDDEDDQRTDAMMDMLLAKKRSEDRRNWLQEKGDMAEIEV
# Chain of bacterial topoisomerase IV (P0AFI2 whole entry): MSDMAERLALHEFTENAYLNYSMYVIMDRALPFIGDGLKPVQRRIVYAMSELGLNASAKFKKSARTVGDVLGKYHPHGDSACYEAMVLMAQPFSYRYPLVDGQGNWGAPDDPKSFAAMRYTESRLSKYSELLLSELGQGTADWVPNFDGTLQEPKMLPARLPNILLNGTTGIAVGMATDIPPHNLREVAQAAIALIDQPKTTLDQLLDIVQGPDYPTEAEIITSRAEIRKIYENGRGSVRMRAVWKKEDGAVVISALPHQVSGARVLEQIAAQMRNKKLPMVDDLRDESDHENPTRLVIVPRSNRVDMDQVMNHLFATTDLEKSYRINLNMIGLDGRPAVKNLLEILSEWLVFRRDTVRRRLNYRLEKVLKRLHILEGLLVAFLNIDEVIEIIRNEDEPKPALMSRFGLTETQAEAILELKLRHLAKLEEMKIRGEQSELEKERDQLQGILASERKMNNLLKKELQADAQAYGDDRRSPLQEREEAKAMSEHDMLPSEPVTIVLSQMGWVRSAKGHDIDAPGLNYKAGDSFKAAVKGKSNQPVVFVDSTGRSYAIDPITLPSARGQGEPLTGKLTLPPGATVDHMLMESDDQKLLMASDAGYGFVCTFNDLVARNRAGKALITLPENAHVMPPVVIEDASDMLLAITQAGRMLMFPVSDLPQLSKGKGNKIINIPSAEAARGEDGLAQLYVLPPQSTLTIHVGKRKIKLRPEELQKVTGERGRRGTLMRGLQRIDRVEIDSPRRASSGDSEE
smiles,measurement,setting,value
"C[C@H]1COc2c(N3CCN(C)CC3)c(F)cc3c(=O)c(C(=O)O)cn1c23 [Levofloxacin, reference compound]",MIC,"[1]; strain GN54, Acinetobacter baumannii levofloxacin-resistant clinical isolate, read-out: MIC",≥ 16 µg/mL
"Cc1c(-c2ccc(O)cc2)ccn2c(=O)c(C(=O)[O-])cc(C3CC3)c12.[K+] [Example 46 K salt, potassium 1-cyclopropyl-8-(4-hydroxy-phenyl)-9-methyl-4-oxo-4H-quinolizine-3-carboxylate]",MIC,[2]; [17],32 µg/mL
same,MIC,[2]; [18],≤ 0.015 µg/mL
same,MIC50,[2],12 µg/mL
same,MIC,[3]; [19],> 32 µg/mL
same,MIC,[3]; [20],0.06 µg/mL
same,MIC50,[3],18 µg/mL
same,MIC,[4]; [21],> 32 µg/mL
same,MIC,[4]; [22],0.25 µg/mL
same,MIC50,[4],4 µg/mL
same,MIC,[5]; [23],0.12 µg/mL
same,MIC,[5]; [24],0.06 µg/mL
same,MIC50,[5],0.12 µg/mL
same,MIC50,[6],≤ 0.015 µg/mL
same,MIC,[6]; [25],≤ 0.015 µg/mL
same,MIC,[6]; [26],≤ 0.015 µg/mL
same,MIC,[7]; [27],16 µg/mL
same,MIC,[7]; [28],0.03 µg/mL
same,MIC50,[7],4 µg/mL
same,MIC,"[1]; Acinetobacter baumannii, GN54",2 µg/mL
same,Mean Parent Remaining,"[8]; Liver microsomes + S9, human",97%
same,Mean Parent Remaining,"[8]; Liver microsomes + S9, mouse",92%
same,Mean Parent Remaining,"[8]; Liver microsomes, human",86%
same,Mean Parent Remaining,"[8]; Liver microsomes, mouse",81%
same,Log reduction (LgR) from vehicle control (CFU/g),"[9]; E. coli ATCC 25922, mouse thigh",0.37
same,Log reduction (LgR) from vehicle control (CFU/g),"[9]; MRSA ATCC 43300, mouse thigh",3.76
same,solubility at 24 h,physchem; fassgf or other biorelevant,153 µM
same,solubility at 24 h,"physchem; pH 7.4, aqueous buffer",44 µM
same,solubility at 24 h,physchem; simulated gastric fluid,7 µM
same,MIC,[10]; [29],0.12 µg/mL
same,MIC,[10]; [30],≤ 0.015 µg/mL
same,MIC50,[10],0.06 µg/mL
same,MIC,[11]; [31],≤ 0.015 µg/mL
same,MIC50,[11],0.03 µg/mL
same,MIC,[12],0.12 µg/mL
same,MIC50,[12],0.5 µg/mL
same,MIC,[13],0.06 µg/mL
same,MIC50,[13],0.06 µg/mL
same,MIC,[14]; [32],0.12 µg/mL
same,MIC,[14]; [33],0.03 µg/mL
same,MIC50,[14],0.06 µg/mL
same,MIC,[15]; [34],0.06 µg/mL
same,MIC,[15]; [35],0.03 µg/mL
same,MIC50,[15],0.045 µg/mL
"Cc1c(-c2ccc(N)c(F)c2)ccn2c(=O)c(C(=O)[O-])cc(C3CC3)c12.[K+] [Example 2 K salt, potassium 8-(4-amino-3-fluoro-phenyl)-1-cyclopropyl-9-methyl-4-oxo-4H-quinolizine-3-carboxylate]",MIC,[2]; [17],16 µg/mL
same,MIC,[2]; [18],≤ 0.015 µg/mL
same,MIC50,[2],16 µg/mL
same,MIC,[3]; [19],16 µg/mL
same,MIC,[3]; [20],0.12 µg/mL
same,MIC50,[3],10 µg/mL
same,MIC,[4]; [21],16 µg/mL
same,MIC,[4]; [22],0.5 µg/mL
same,MIC50,[4],4 µg/mL
same,MIC,[5]; [23],0.25 µg/mL
same,MIC,[5]; [24],0.06 µg/mL
same,MIC50,[5],0.12 µg/mL
same,MIC50,[6],≤ 0.015 µg/mL
same,MIC,[6]; [25],≤ 0.015 µg/mL
same,MIC,[6]; [26],≤ 0.015 µg/mL
same,MIC,[7]; [27],16 µg/mL
same,MIC,[7]; [28],0.06 µg/mL
same,MIC50,[7],6 µg/mL
same,MIC,"[1]; Acinetobacter baumannii, GN54",2 µg/mL
same,IC50,bacterial gyrase,≤ 1.42 µM
same,IC50,[16],4.43 µM
same,Mean Parent Remaining,"[8]; Liver microsomes + S9, human",95%
same,Mean Parent Remaining,"[8]; Liver microsomes + S9, mouse",58%
same,Mean Parent Remaining,"[8]; Liver microsomes, human",90%
same,Mean Parent Remaining,"[8]; Liver microsomes, mouse",53%
same,solubility at 24 h,physchem; fassgf or other biorelevant,171 µM
same,solubility at 24 h,"physchem; pH 7.4, aqueous buffer",28 µM
same,solubility at 24 h,physchem; simulated gastric fluid,21 µM
same,MIC,[10]; [29],0.25 µg/mL
same,MIC,[10]; [30],≤ 0.015 µg/mL
same,MIC50,[10],0.06 µg/mL
same,MIC,"[11]; read-out: MIC Range High, Enterococcus faecalis (5 strains)",1 µg/mL
same,MIC,[11]; [31],≤ 0.015 µg/mL
same,MIC50,[11],0.03 µg/mL
same,MIC,[12],0.12 µg/mL
same,MIC50,[12],0.5 µg/mL
same,MIC,[13],0.06 µg/mL
same,MIC50,[13],0.12 µg/mL
same,MIC,[14]; [32],0.12 µg/mL
same,MIC,[14]; [33],0.06 µg/mL
same,MIC50,[14],0.09 µg/mL
same,MIC,[15]; [34],0.12 µg/mL
same,MIC,[15]; [35],0.03 µg/mL
same,MIC50,[15],0.06 µg/mL
